Data taken from ChEMBL document CHEMBL5390253, “Discovery of Selective and Potent Macrocyclic CDK9 Inhibitors for the Treatment of Osimertinib-Resistant Non-Small-Cell Lung Cancer” (J Med Chem, 2023).
pIC50: −log10 of the molar value. The source made the active and inactive calls. The rule behind the calls is not given here.

Experiments:
[1] = Toxicity in ICR mouse assessed as effect on body weight loss at 1000 mg/kg, po measured for 8 to 9 days; assay type: organism-based; conditions: in vivo, time 8-9 day
[2] = tested on: NCI-H1975; experiment: Downregulation of cleaved PARP level in human Osimertinib-resistant NCI-H1975 cell measured after 16 hrs by Western blot analysis; assay type: functional, cell-based; conditions: dose 125-2000 nM
[3] = tested on: NCI-H1299; experiment: Antiproliferative activity against human NCI-H1299 cells incubated for 72 hrs by MTT assay; assay type: functional, cell-based; conditions: NCI-H1299, 72 h
[4] = Toxicity in ICR mouse assessed as morphological changes in heart at 1000 mg/kg, po measured after 9 days by H and E staining based analysis; assay type: organism-based; conditions: in vivo, 216 h, time 9 day
[5] = molecular target: Interleukin-1 receptor-associated kinase 1 (Homo sapiens) (UniProt P51617); experiment: Inhibition of IRAK1 (unknown origin) at 500 nM preincubated for 10 mins followed by substrate addition and measured after 60 mins in presence of ATP by ADP-Glo reagent based assay relative to control; conditions: time 70.0 min
Chain of Interleukin-1 receptor-associated kinase 1 (Homo sapiens) (P51617 whole entry, looked up): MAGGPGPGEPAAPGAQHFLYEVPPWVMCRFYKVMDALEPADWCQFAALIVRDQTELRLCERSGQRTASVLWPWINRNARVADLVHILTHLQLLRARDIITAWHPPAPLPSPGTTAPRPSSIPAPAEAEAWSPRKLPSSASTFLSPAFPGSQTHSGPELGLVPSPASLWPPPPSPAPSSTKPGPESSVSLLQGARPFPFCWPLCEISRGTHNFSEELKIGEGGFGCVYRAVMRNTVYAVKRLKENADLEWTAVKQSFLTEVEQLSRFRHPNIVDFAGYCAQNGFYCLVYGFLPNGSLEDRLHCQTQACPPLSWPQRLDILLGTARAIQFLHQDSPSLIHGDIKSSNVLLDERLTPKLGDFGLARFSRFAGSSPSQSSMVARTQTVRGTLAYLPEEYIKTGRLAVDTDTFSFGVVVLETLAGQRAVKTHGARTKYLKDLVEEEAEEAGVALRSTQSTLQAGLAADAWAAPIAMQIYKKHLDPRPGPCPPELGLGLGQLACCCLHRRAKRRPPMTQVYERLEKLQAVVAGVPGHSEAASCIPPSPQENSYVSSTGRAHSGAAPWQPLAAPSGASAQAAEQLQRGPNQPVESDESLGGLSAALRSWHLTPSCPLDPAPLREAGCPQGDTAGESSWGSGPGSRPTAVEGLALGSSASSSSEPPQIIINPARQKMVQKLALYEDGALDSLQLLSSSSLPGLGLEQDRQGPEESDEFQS

[6] = Antiproliferative activity against human Osimertinib-resistant NCI-H1975 cell incubated for 72 hrs by MTT assay; assay type: functional, cell-based; conditions: NCI-H1975, 72 h
[7] = Toxicity in ICR mouse assessed as abnormalities in kidney at 1000 mg/kg, po measured after 9 days by H and E staining based analysis; assay type: organism-based; conditions: in vivo, 216 h, time 9 day
[8] = molecular target: CDK18/Cyclin Y (Homo sapiens) (UniProt Q07002+Q8ND76); experiment: Inhibition of CDK18/cyclin Y (unknown origin) at 200 nM preincubated for 10 mins followed by substrate addition and measured after 60 mins in presence of ATP by ADP-Glo reagent based assay relative to control; assay type: protein-complex assay; conditions: time 70.0 min
[9] = tested on: NCI-H1975; experiment: Downregulation of Bcl-2 level in human Osimertinib-resistant NCI-H1975 cell at 125 nM measured after 16 hrs in presence of osimertinib by Western blot analysis; assay type: functional, cell-based
[10] = molecular target: CDK3/Cyclin E (Homo sapiens) (UniProt P24864+Q00526); experiment: Inhibition of CDK3/Cyclin E1 (unknown origin) at 200 nM preincubated for 10 mins followed by substrate addition and measured after 60 mins in presence of ATP by ADP-Glo reagent based assay relative to control; assay type: protein-complex assay; conditions: time 70.0 min
Chain of CDK3/Cyclin E (Homo sapiens) (P24864 whole entry, looked up): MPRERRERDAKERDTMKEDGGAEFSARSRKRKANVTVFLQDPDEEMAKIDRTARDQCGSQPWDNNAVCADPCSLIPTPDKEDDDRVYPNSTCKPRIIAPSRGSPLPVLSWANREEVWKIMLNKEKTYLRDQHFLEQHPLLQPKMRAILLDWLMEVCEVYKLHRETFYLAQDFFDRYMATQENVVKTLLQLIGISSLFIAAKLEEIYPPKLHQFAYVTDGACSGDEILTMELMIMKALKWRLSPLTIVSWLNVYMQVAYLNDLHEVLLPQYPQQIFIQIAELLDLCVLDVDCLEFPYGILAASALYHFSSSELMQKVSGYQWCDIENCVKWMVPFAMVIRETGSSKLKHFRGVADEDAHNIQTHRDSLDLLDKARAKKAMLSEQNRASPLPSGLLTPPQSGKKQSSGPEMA
Chain of CDK3/Cyclin E (Homo sapiens) (Q00526 whole entry, looked up): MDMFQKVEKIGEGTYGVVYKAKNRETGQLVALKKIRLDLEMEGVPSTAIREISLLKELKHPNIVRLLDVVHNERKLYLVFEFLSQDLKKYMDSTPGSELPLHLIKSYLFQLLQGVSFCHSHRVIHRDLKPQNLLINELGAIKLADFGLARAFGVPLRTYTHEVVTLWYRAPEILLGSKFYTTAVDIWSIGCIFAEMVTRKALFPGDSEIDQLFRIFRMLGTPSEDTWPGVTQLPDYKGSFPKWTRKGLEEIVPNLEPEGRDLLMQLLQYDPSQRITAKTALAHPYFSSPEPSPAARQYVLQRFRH

[11] = Toxicity in ICR mouse assessed as morphological changes in kidney at 1000 mg/kg, po measured after 9 days by H and E staining based analysis; assay type: organism-based; conditions: in vivo, 216 h, time 9 day
[12] = molecular target: CYP3A4 (Homo sapiens, UniProt P08684); experiment: Inhibition of CYP3A4 in human liver microsomes using midazolam as substrate at 10 uM incubated for 5 mins in presence of NADPH by LC-MS/MS analysis relative to control; assay type: ADME, Microsome; conditions: probe midazolam
Chain of CYP3A4 (P08684 whole entry): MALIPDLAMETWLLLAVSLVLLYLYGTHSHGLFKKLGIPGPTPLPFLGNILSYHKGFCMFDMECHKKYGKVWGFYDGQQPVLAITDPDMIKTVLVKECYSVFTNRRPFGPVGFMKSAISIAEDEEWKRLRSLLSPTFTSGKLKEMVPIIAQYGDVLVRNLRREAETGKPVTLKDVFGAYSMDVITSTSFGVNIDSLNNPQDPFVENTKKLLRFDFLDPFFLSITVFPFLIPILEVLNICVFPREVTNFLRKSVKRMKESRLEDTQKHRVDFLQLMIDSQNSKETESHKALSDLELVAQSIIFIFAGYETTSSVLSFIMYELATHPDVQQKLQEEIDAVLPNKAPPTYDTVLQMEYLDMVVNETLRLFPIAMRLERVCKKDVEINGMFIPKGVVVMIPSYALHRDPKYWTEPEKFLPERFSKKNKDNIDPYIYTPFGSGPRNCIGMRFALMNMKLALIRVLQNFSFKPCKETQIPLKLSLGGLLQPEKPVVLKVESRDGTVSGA

[13] = Induction of apoptosis in human Osimertinib-resistant NCI-H1975 cell assessed as late apoptotic cells at 125 nM measured after 16 hrs by Annexin V-FITC and PI staining based analysis (Rvb =2.84%); assay type: functional
[14] = Toxicity in ICR mouse assessed as morphological changes in spleen at 1000 mg/kg, po measured after 9 days by H and E staining based analysis; assay type: organism-based; conditions: in vivo, 216 h, time 9 day
[15] = tested on: NCI-H1975; experiment: Downregulation of cleaved PARP level in human Osimertinib-resistant NCI-H1975 cell at 125 nM measured after 16 hrs in presence of osimertinib by Western blot analysis; assay type: functional, cell-based
[16] = tested on: NCI-H1975; experiment: Downregulation of cleaved caspase-3 level in human Osimertinib-resistant NCI-H1975 cell at 125 nM measured after 16 hrs in presence of osimertinib by Western blot analysis; assay type: functional, cell-based
[17] = Antiproliferative activity against 3D-cultured human Osimertinib-resistant HCC827 cell incubated for 72 hrs by MTT assay; assay type: functional, cell-based; conditions: Osimertinib-resistant HCC827AR cell
[18] = tested on: NCI-H1975; experiment: Inhibition of cell growth in 3D-cultured human Osimertinib-resistant NCI-H1975 cell by DAPI and PI staining based analysis; assay type: functional; conditions: dose 0.049-3.125 µM
[19] = molecular target: Glycogen synthase kinase-3 beta (Homo sapiens) (UniProt P49841); experiment: Inhibition of GSK3beta (unknown origin) at 500 nM preincubated for 10 mins followed by substrate addition and measured after 60 mins in presence of ATP by ADP-Glo reagent based assay relative to control; conditions: time 70.0 min
Chain of Glycogen synthase kinase-3 beta (Homo sapiens) (P49841 whole entry, looked up): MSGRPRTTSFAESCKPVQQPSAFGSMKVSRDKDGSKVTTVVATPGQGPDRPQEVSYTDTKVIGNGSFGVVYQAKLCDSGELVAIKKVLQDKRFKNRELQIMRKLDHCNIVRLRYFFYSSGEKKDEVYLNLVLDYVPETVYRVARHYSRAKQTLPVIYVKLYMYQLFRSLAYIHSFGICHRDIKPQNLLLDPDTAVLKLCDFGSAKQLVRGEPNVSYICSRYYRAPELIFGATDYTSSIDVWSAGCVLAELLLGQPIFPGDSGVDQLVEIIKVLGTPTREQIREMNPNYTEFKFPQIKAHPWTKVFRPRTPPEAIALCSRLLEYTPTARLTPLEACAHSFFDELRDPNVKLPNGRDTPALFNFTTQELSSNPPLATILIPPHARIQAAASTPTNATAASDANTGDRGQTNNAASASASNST

[20] = Toxicity in ICR mouse assessed as effect on physical appearance at 1000 mg/kg, po measured for 8 to 9 days; assay type: organism-based; conditions: in vivo, time 8-9 day
[21] = Induction of apoptosis in human Osimertinib-resistant NCI-H1975 cell assessed as necrotic cells at 125 nM measured after 16 hrs by Annexin V-FITC and PI staining based analysis (reference value: 0.50%); assay type: functional
[22] = Induction of apoptosis in human Osimertinib-resistant NCI-H1975 cell assessed as early apoptotic cells at 125 nM measured after 16 hrs by Annexin V-FITC and PI staining based analysis (Rvb =1.78%); assay type: functional
[23] = tested on: NCI-H1975; experiment: Downregulation of Mcl-1 level in human Osimertinib-resistant NCI-H1975 cell at 500 nM measured after 8 hrs by Western blotting analysis; assay type: functional, cell-based
[24] = molecular target: CDK7/Cyclin H/MNAT1 (Homo sapiens) (UniProt P51946+P50613+P51948); experiment: Inhibition of CDK7/Cyclin H/MAT1 (unknown origin) at 200 nM preincubated for 10 mins followed by substrate addition and measured after 60 mins in presence of ATP by ADP-Glo reagent based assay relative to control; assay type: protein-complex assay; conditions: time 70.0 min
[25] = tested on: Epidermal growth factor receptor (Homo sapiens), P00533 [L858R,T790M,C797S]; experiment: Inhibition of EGFR T790M/C797S/L858R triple mutant (unknown origin) at 2500 nM preincubated for 10 mins followed by substrate addition and measured after 60 mins in presence of ATP by ADP-Glo reagent based assay relative to control; conditions: time 70.0 min
Chain of Epidermal growth factor receptor (Homo sapiens), P00533 [L858R,T790M,C797S] (P00533 whole entry T790M/C797S/L858R): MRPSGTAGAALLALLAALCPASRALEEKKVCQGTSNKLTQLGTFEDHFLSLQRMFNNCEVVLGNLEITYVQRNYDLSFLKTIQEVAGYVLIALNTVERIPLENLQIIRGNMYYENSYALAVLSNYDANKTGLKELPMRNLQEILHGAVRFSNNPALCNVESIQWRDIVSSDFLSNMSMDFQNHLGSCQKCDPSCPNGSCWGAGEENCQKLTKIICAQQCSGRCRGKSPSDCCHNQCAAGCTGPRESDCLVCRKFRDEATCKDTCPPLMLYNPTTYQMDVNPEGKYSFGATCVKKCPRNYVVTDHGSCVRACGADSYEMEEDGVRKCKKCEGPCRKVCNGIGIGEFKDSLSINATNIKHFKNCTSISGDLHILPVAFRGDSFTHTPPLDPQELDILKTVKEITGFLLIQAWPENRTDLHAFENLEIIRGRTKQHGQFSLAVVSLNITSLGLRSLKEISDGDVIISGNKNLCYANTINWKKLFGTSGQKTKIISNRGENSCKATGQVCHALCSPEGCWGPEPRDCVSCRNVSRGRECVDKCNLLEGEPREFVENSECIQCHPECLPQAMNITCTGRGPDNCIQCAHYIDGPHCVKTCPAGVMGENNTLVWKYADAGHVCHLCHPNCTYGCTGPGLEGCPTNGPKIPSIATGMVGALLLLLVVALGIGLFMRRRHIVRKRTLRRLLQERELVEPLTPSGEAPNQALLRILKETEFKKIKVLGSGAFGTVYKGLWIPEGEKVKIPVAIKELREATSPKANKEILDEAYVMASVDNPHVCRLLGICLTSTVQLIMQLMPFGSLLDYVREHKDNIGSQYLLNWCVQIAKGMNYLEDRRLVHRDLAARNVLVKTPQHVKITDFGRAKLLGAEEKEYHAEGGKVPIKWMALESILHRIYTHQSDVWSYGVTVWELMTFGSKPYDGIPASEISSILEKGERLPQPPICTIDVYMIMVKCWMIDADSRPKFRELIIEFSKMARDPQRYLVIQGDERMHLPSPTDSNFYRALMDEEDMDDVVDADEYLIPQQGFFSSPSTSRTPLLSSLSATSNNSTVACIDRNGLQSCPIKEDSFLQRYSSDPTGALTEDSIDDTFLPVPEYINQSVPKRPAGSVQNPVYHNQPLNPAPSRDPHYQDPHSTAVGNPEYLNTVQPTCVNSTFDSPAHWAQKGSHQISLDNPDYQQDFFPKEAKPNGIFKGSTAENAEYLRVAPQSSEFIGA

[26] = Downregulation of Mcl-1 in human NCI-H1975 cells at 500 nM relative to control; assay type: functional
[27] = molecular target: Homeodomain-interacting protein kinase 1 (Homo sapiens) (UniProt Q86Z02); experiment: Inhibition of HIPK1 (unknown origin) at 500 nM preincubated for 10 mins followed by substrate addition and measured after 60 mins in presence of ATP by ADP-Glo reagent based assay relative to control; conditions: time 70.0 min
Chain of Homeodomain-interacting protein kinase 1 (Homo sapiens) (Q86Z02 whole entry, looked up): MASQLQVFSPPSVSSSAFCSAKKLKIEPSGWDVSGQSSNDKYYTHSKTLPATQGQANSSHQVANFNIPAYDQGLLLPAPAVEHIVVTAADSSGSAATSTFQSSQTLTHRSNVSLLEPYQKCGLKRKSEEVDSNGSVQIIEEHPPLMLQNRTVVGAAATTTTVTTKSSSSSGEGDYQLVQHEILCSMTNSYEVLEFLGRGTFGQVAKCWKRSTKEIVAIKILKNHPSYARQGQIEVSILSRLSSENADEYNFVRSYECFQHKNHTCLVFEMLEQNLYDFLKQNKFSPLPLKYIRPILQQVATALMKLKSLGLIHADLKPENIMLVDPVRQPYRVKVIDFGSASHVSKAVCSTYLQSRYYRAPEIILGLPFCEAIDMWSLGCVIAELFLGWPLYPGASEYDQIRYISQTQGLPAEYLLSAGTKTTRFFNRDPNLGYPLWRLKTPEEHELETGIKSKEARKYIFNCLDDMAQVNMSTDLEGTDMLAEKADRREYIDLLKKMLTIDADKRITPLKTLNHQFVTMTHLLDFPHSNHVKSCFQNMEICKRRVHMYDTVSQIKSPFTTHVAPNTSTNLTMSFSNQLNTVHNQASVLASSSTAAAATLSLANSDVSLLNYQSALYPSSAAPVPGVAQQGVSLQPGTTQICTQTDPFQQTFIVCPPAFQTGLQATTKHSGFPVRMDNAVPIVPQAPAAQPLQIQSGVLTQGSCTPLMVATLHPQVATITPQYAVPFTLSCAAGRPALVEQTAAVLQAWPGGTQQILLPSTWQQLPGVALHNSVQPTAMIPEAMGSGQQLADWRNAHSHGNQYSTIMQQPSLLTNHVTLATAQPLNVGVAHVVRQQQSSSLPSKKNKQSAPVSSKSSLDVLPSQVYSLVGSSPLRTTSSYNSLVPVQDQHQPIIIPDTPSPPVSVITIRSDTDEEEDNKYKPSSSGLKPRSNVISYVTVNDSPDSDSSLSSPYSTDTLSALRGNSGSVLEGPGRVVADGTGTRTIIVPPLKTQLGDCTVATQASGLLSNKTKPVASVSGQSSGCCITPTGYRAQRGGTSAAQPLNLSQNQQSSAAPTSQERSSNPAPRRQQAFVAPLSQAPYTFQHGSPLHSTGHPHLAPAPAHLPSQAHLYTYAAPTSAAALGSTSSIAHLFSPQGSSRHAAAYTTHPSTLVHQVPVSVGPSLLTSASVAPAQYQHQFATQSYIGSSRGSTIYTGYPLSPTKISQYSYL

[28] = tested on: NCI-H1975; experiment: Inhibition of colony formation in human Osimertinib-resistant NCI-H1975 cell assessed as inhibition of cell growth at 125 to 2000 nM measured after 2 weeks by crystal violet staining based analysis; assay type: functional; conditions: dose 125-2000 nM
[29] = tested on: NCI-H1975; experiment: Downregulation of Mcl-1 level in human Osimertinib-resistant NCI-H1975 cell at 500 nM measured after 2 hrs by Western blotting analysis; assay type: functional, cell-based
[30] = Induction of apoptosis in human Osimertinib-resistant NCI-H1975 cell assessed as early apoptotic cells at 500 nM measured after 16 hrs by Annexin V-FITC and PI staining based analysis (reference value: 1.78%); assay type: functional
[31] = Toxicity in ICR mouse assessed as abnormalities in heart at 1000 mg/kg, po measured after 9 days by H and E staining based analysis; assay type: organism-based; conditions: in vivo, 216 h, time 9 day
[32] = tested on: NCI-H1975; experiment: Antiproliferative activity against human NCI-H1975 cells incubated for 72 hrs by MTT assay; assay type: functional, cell-based; conditions: NCI-H1975, 72 h

pIC50 [3]: 7.07 | inhibition [5]: 73.5% | inhibition [8]: 12% | inhibition [10]: 29.6% | inhibition at 5 min, 10 µM [12]: 27.5% | inhibition [19]: 93.9% | inhibition [24]: 12.8% | inhibition [25]: 33.3% | inhibition [27]: 96% | pIC50 [32]: 6.76
SMILES: O=C(NCCN1CCOCC1)c1ccc2cc1OCCCCCCOc1cc(ccc1F)-c1nc(ncc1F)N2
Activity [1]: Non-Toxic | Activity [2]: Dose-Dependent Effect | Activity [4]: Non-Toxic | pIC50 [6]: 6.60 | Activity [7]: Non-Toxic | Activity [9]: Active | Activity [11]: Non-Toxic | Activity [13]: 3.15% | Activity [14]: Non-Toxic | Activity [15]: Active | Activity [16]: Active | pIC50 [17]: 6.48 | inhibition [18]: Dose-Dependent Effect | Activity [20]: Non-Toxic | Activity [21]: 3.25% | Activity [22]: 4.7% | Activity [23]: Active | Activity [26]: 75.6% | inhibition [28]: Active | Activity [29]: Active | Activity [30]: 14.4% | Activity [31]: Non-Toxic
